Experimental data reported in the NIST ThermoML archive (doi:10.1016/j.jct.2010.11.004).
± gives the expanded uncertainty stated by the source.

settings: 298.15 K; 101.33 kPa; Liquid; Vibrating tube method

SMILES	mass density [kg/m3]
CCCCCCCCC(C)=O [2-decanone]	820.63 ± 0.24
CCCCCOCCCCC [dipentyl ether]	779.1 ± 0.24

Second part, the compound after the results:

mass density [kg/m3]	SMILES
745.28 ± 0.25	CCCCCCCCCCCC [dodecane]
770.31 ± 0.24	CCCCCCCCCCCCCCCC [hexadecane]
760.2 ± 0.24	CCCCCCCCCCCCCC [tetradecane]
